Data: the NIST ThermoML archive (doi:10.1016/j.jct.2018.10.012)
Numbers after ± are expanded uncertainties.

Details: Liquid; for viscosity / mass density: 101.33 kPa; for viscosity: Capillary tube (Ostwald / Ubbelohde) method; for mass density: Pycnometric method; for vapor or sublimation pressure: Ebulliometric method (Recirculating still)

CCCCCCCCCCCCCCCC(=O)OCC(CC)CCCC (stereo unspecified) [2-ethylhexyl palmitate]
Details	mass density [kg/m3]	vapor or sublimation pressure [kPa]	viscosity [mPa·s]
298.15 K	855.1 ± 0.9	–	11.78 ± 0.48
303.15 K	851 ± 0.9	–	10.01 ± 0.41
308.15 K	847.9 ± 0.9	–	8.28 ± 0.34
313.15 K	844.5 ± 0.9	–	7.16 ± 0.29
318.15 K	840.9 ± 0.9	–	6.26 ± 0.25
323.15 K	837.4 ± 0.9	–	5.64 ± 0.23
328.15 K	834 ± 0.9	–	4.94 ± 0.2
333.15 K	830.3 ± 0.9	–	4.41 ± 0.18
338.15 K	826.7 ± 0.9	–	3.94 ± 0.16
343.15 K	823.3 ± 0.9	–	3.55 ± 0.14
348.15 K	820.1 ± 0.9	–	3.24 ± 0.13
353.15 K	816.8 ± 0.9	–	2.94 ± 0.12
358.15 K	813.2 ± 0.9	–	2.71 ± 0.11
363.15 K	810 ± 0.9	–	2.49 ± 0.1
368.15 K	806.9 ± 0.9	–	2.29 ± 0.09
476.95 K	–	0.307 ± 0.029	–
479.35 K	–	0.333 ± 0.029	–
482.35 K	–	0.387 ± 0.029	–
484.95 K	–	0.427 ± 0.029	–
488.05 K	–	0.493 ± 0.029	–
490.35 K	–	0.547 ± 0.029	–
491.45 K	–	0.573 ± 0.029	–
493.85 K	–	0.627 ± 0.029	–
496.05 K	–	0.68 ± 0.029	–
497.35 K	–	0.733 ± 0.029	–
499.35 K	–	0.8 ± 0.029	–
500.85 K	–	0.853 ± 0.029	–

CCCCCCCCCCCCCCCCCC(=O)OCC(CC)CCCC (stereo unspecified) [2-ethylhexyl stearate]
Details	mass density [kg/m3]	vapor or sublimation pressure [kPa]	viscosity [mPa·s]
298.15 K	855.4 ± 0.9	–	15.04 ± 0.61
303.15 K	851.4 ± 0.9	–	12.55 ± 0.51
308.15 K	847.9 ± 0.9	–	10.62 ± 0.43
313.15 K	844.9 ± 0.9	–	9.06 ± 0.37
318.15 K	841.1 ± 0.9	–	7.84 ± 0.32
323.15 K	837.7 ± 0.9	–	6.81 ± 0.28
328.15 K	834.4 ± 0.9	–	6.04 ± 0.25
333.15 K	831.1 ± 0.9	–	5.34 ± 0.22
338.15 K	827.8 ± 0.9	–	4.79 ± 0.19
343.15 K	824.5 ± 0.9	–	4.36 ± 0.18
348.15 K	821.1 ± 0.9	–	3.92 ± 0.16
353.15 K	817.2 ± 0.9	–	3.58 ± 0.15
358.15 K	814.2 ± 0.9	–	3.27 ± 0.13
363.15 K	811.2 ± 0.9	–	3.02 ± 0.12
368.15 K	808 ± 0.9	–	2.8 ± 0.11
477.05 K	–	0.213 ± 0.029	–
479.65 K	–	0.253 ± 0.029	–
482.25 K	–	0.28 ± 0.029	–
483.45 K	–	0.307 ± 0.029	–
485.25 K	–	0.333 ± 0.029	–
487.55 K	–	0.373 ± 0.029	–
488.85 K	–	0.4 ± 0.029	–
491.25 K	–	0.44 ± 0.029	–
493.25 K	–	0.493 ± 0.029	–
495.25 K	–	0.547 ± 0.029	–
496.25 K	–	0.573 ± 0.029	–
498.05 K	–	0.613 ± 0.029	–

CCCCCCCCCCCCCCCC(=O)OC [methyl hexadecanoate]
Details	vapor or sublimation pressure [kPa]
419.15 K	0.213 ± 0.029
423.15 K	0.279 ± 0.029
425.25 K	0.306 ± 0.029
428.35 K	0.346 ± 0.029
430.75 K	0.399 ± 0.029
432.25 K	0.425 ± 0.029
433.35 K	0.452 ± 0.029
436.25 K	0.532 ± 0.029
438.45 K	0.585 ± 0.029
440.15 K	0.624 ± 0.029
442.35 K	0.705 ± 0.029
444.15 K	0.771 ± 0.029
